Measured values as given in US11274092B2, “Potassium channel inhibitors” (ACESION PHARMA ApS, priority 2016, dated 2022).

Each molecule was assayed against T1, human SK3 channel (hKCa2.3) (Homo sapiens, UniProt Q9UGI6) (assay: Automated whole cell patch-clamp (QPatch 16 HT), inhibition of SK3 current). Settings: HEK-293 cells stably expressing hKCa2.3; symmetrical K+ solutions, free calcium 400 nM; effects normalized to N-methyl bicuculline.
T1 construct: expressed in transfected cells
Format: cell-based
Method: Automated whole cell patch-clamp recordings were performed using a QPatch 16 HT system and single-hole Qplates (Biolin Scientific, Sophion, Denmark) on HEK-293 cells stably expressing the human SK3 channel (hKCa2.3). Cells were cultured and prepared for experiments using normal cell culturing procedures. A total of 4-5 million cells were used per experiment. The Qpatch automatically generates giga sealing, whole-cell formation, compound application and recording of current. hKCa2.3 currents were recorded in symmetrical K^+ solutions, with an intracellular solution consisting of in mM: KCl 108; KOH/EGTA (ethylene glycol-bis(2-aminoethylether)-N,N,N′,N′-tetraacetic acid) 31.25/10; CaCl2) 8.1; MgCl2 1.2; HEPES (2-[4-(2-hydroxyethyl)piperazin-1-yl]ethanesulfonic acid) 10; KOH 15, pH adjusted to pH=7.2 with HCl. The free calcium concentration was calculated to 400 nM. The extracellular solution consisted of in mM: KCl 150; CaCl2) 0.1; MgCl2 3; HEPES 10; Glucose 10, pH=7.4 with KOH. The cells were held at 0 mV and hKCa2.3 currents were elicited by a linear voltage ramp from […] (200 ms in duration) applied every 5th second. The compound application protocol consisted of 12 recording periods lasting from 50-200 s: 1) Baseline recordings in extracellular solution; 2) Application of the positive control N-methyl bicuculline (100 μM), which is characterized by full efficacy, fast on- and off-rate; 3-4) Wash-out; 5-9) Increasing concentrations of test compound to establish an IC50 value; 10-11) Wash-out; 12) positive control with compound NS8593 (N-[(1R)-1,2,3,4-tetrahydro-1-naphthalenyl]-1H-benzimidazol-2-amine) (1 μM). Data were sampled at 10 kHz, 4th order Bessel filter, cut-off frequency 3 kHz. Currents were compensated for run-down. Potency was quantified as the concentration needed to inhibit half of the SK channel activity and reported as an IC50 value. All effects of compounds of the present invention as tested were normalized to the observed inhibitory effect of N-methyl bicuculline.

IC50 [µM]	SMILES
10 to 100	CCN(CCN(C)C)C(=O)CC(Nc1nc2ccccc2[nH]1)c1cccc(C(F)(F)F)c1 (centres unmarked) [Example 45, 3-[(1H-1,3-benzodiazol-2-yl)amino]-N-[2-(dimethylamino)ethyl]-N-ethyl-3-[3-(trifluoromethyl)phenyl]propanamide]
< 10	COC(=O)[C@@H](C)NC(=O)CC(Nc1nc2ccccc2[nH]1)c1cccc(C(F)(F)F)c1 (stereo partly drawn) [Example 46, Methyl (2R)-2-{3-[(1H-1,3-benzodiazol-2-yl)amino]-3-[3-(trifluoromethyl)phenyl]propanamido}propanoate]
< 10	CCN(CC(=O)OC)C(=O)CC(Nc1nc2ccccc2[nH]1)c1cccc(C(F)(F)F)c1 (centres unmarked) [Example 47, Methyl 2-{3-[(1H-1,3-benzodiazol-2-yl)amino]-N-ethyl-3-[3-(trifluoromethyl)phenyl]propanamido}acetate]
< 10	CCOC(=O)CN(CC)C(=O)CC(Nc1nc2ccccc2[nH]1)c1cccc(C(F)(F)F)c1 (centres unmarked) [Example 48, Ethyl 2-{3-[(1H-1,3-benzodiazol-2-yl)amino]-N-ethyl-3-[3-(trifluoromethyl)phenyl]propanamido}acetate]
10 to 100	CCN(CCO)C(=O)CC(Nc1nc2c(CO)cccc2[nH]1)c1cccc(C(F)(F)F)c1 (centres unmarked) [Example 49, N-ethyl-N-(2-hydroxyethyl)-3-{[4-(hydroxymethyl)-1H-1,3-benzodiazol-2-yl]amino}-3-[3-(trifluoromethyl)phenyl]propanamide]
10 to 100	CN(CC#N)C(=O)CC(Nc1nc2c(CO)cccc2[nH]1)c1cccc(C(F)(F)F)c1 (centres unmarked) [Example 50, N-(cyanomethyl)-3-{[4-(hydroxymethyl)-1H-1,3-benzodiazol-2-yl]amino}-N-methyl-3-[3-(trifluoromethyl)phenyl]propanamide]
10 to 100	CN(CC#N)C(=O)CC(Nc1nc2c(CCO)cccc2[nH]1)c1cccc(C(F)(F)F)c1 (centres unmarked) [Example 51, N-(cyanomethyl)-3-{[4-(2-hydroxyethyl)-1H-1,3-benzodiazol-2-yl]amino}-N-methyl-3-[3-(trifluoromethyl)phenyl]propanamide]
10 to 100	CCN(CC#N)C(=O)CC(Nc1nc2c(CCO)cccc2[nH]1)c1cccc(C(F)(F)F)c1 (centres unmarked) [Example 52, N-(cyanomethyl)-N-ethyl-3-{[4-(2-hydroxyethyl)-1H-1,3-benzodiazol-2-yl]amino}-3-[3-(trifluoromethyl)phenyl]propanamide]
10 to 100	CCN(CC#N)C(=O)CC(Nc1nc2c(CO)cccc2[nH]1)c1cccc(C(F)(F)F)c1 (centres unmarked) [Example 53, N-(cyanomethyl)-N-ethyl-3-{[4-(hydroxymethyl)-1H-1,3-benzodiazol-2-yl]amino}-3-[3-(trifluoromethyl)phenyl]propanamide]
< 10	CCN(CC(N)=O)C(=O)CC(Nc1nc2c(CO)cccc2[nH]1)c1cccc(C(F)(F)F)c1 (centres unmarked) [Example 54, N-(carbamoylmethyl)-N-ethyl-3-{[4-(hydroxymethyl)-1H-1,3-benzodiazol-2-yl]amino}-3-[3-(trifluoromethyl)phenyl]propanamide]
< 10	CCN(CC#N)C(=O)CC(Nc1nc2ccccc2[nH]1)c1cccc(C(F)(F)F)c1 (centres unmarked) [Example 55, 3-[(1H-1,3-benzodiazol-2-yl)amino]-N-(cyanomethyl)-N-ethyl-3-[3-(trifluoromethyl)phenyl]propanamide]
< 10	CN(CC#N)C(=O)CC(Nc1nc2ccccc2[nH]1)c1cccc(C(F)(F)F)c1 (centres unmarked) [Example 56, 3-[(1H-1,3-benzodiazol-2-yl)amino]-N-(cyanomethyl)-N-methyl-3-[3-(trifluoromethyl)phenyl]propanamide]
< 10	COC(=O)CN(C)C(=O)CC(Nc1nc2ccccc2[nH]1)c1cccc(C(F)(F)F)c1 (centres unmarked) [Example 57, Methyl 2-{3-[(1H-1,3-benzodiazol-2-yl)amino]-N-methyl-3-[3-(trifluoromethyl)phenyl]propanamido}acetate]
< 10	CCN(CCSC)C(=O)CC(Nc1nc2c(CO)cccc2[nH]1)c1cccc(C(F)(F)F)c1 (centres unmarked) [Example 58, N-ethyl-3-{[4-(hydroxymethyl)-1H-1,3-benzodiazol-2-yl]amino}-N-[2-(methylsulfanyl)ethyl]-3-[3-(trifluoromethyl)phenyl]propanamide]
< 10	COC(=O)CNC(=O)CC(Nc1nc2ccccc2[nH]1)c1cccc(C(F)(F)F)c1 (centres unmarked) [Example 59, Methyl 2-{3-[(1H-1,3-benzodiazol-2-yl)amino]-3-[3-(trifluoromethyl)phenyl]propanamido}acetate]
10 to 100	CN(CC(N)=O)C(=O)CC(Nc1nc2ccccc2[nH]1)c1cccc(C(F)(F)F)c1 (centres unmarked) [Example 60, 3-[(1H-1,3-benzodiazol-2-yl)amino]-N-(carbamoylmethyl)-N-methyl-3-[3-(trifluoromethyl)phenyl]propanamide]
< 10	COC(=O)N1CCN(C(=O)C(Nc2nc3ccccc3[nH]2)c2cccc(C(F)(F)F)c2)CC1 (centres unmarked) [Example 61, Methyl 4-{2-[(1H-1,3-benzodiazol-2-yl)amino]-2-[3-(trifluoromethyl)phenyl]acetyl}piperazine-1-carboxylate]
10 to 100	COCC(=O)NCCNC(=O)CC(Nc1nc2ccccc2[nH]1)c1cccc(C(F)(F)F)c1 (centres unmarked) [Example 62, 3-[(1H-1,3-benzodiazol-2-yl)amino]-N-[2-(2-methoxyacetamido)ethyl]-3-[3-(trifluoromethyl)phenyl]propanamide]
< 10	CCNC(=O)OCCNC(=O)CC(Nc1nc2ccccc2[nH]1)c1cccc(C(F)(F)F)c1 (centres unmarked) [Example 63, 2-{3-[(1H-1,3-benzodiazol-2-yl)amino]-3-[3-(trifluoromethyl)phenyl]propanamido}ethyl N-ethylcarbamate]
10 to 100	CCN(CCO)C(=O)C(Cc1cccc(C(F)(F)F)c1)Nc1nc2ccccc2[nH]1 (centres unmarked) [Example 64, 2-[(1H-1,3-benzodiazol-2-yl)amino]-N-ethyl-N-(2-hydroxyethyl)-3-[3-(trifluoromethyl)phenyl]propanamide]
< 10	CCc1cc(C(CC(=O)N(CC)CCO)Nc2nc3ccccc3[nH]2)ccc1F (centres unmarked) [Example 65, 3-[(1H-1,3-benzodiazol-2-yl)amino]-N-ethyl-3-(3-ethyl-4-fluorophenyl)-N-(2-hydroxyethyl)propanamide]
10 to 100	CCOC(=O)NCc1ccc2[nH]c(NC(CC(=O)N(CC)CCO)c3cccc(C(F)(F)F)c3)nc2c1 (centres unmarked) [Example 66, Ethyl N-{[2-({2-[ethyl(2-hydroxyethyl)carbamoyl]-1-[3-(trifluoromethyl)phenyl]ethyl}amino)-1H-1,3-benzodiazol-5-yl]methyl}carbamate]
< 10	O=C(CC(Nc1nc2ccccc2[nH]1)c1cccc(C(F)(F)F)c1)NCCOC(F)(F)F (centres unmarked) [Example 67, 3-[(1H-1,3-benzodiazol-2-yl)amino]-N-[2-(trifluoromethoxy)ethyl]-3-[3-(trifluoromethyl)phenyl]propanamide]
< 10	O=C(CC(Nc1nc2ccccc2[nH]1)c1cccc(C(F)(F)F)c1)NCCOCC(F)(F)F (centres unmarked) [Example 68, 3-[(1H-1,3-benzodiazol-2-yl)amino]-N-[2-(2,2,2-trifluoroethoxy)ethyl]-3-[3-(trifluoromethyl)phenyl]propanamide]
< 10	O=C(CC(Nc1nc2ccccc2[nH]1)c1cccc(C(F)(F)F)c1)NCc1ccon1 (centres unmarked) [Example 71, 3-[(1H-1,3-benzodiazol-2-yl)amino]-N-(1,2-oxazol-3-ylmethyl)-3-[3-(trifluoromethyl)phenyl]propanamide]
< 10	O=C(CC(Nc1nc2ccccc2[nH]1)c1cccc(C(F)(F)F)c1)NCc1nc2ccccc2o1 (centres unmarked) [Example 72, 3-[(1H-1,3-benzodiazol-2-yl)amino]-N-(1,3-benzoxazol-2-ylmethyl)-3-[3-(trifluoromethyl)phenyl]propanamide]
< 10	COCC(C)NC(=O)CC(Nc1nc2ccccc2[nH]1)c1cccc(C(F)(F)F)c1 (centres unmarked) [Example 73, 3-[(1H-1,3-benzodiazol-2-yl)amino]-N-(1-methoxypropan-2-yl)-3-[3-(trifluoromethyl)phenyl]propanamide]
< 10	Cc1noc(C)c1CCNC(=O)CC(Nc1nc2ccccc2[nH]1)c1cccc(C(F)(F)F)c1 (centres unmarked) [Example 74, 3-[(1H-1,3-benzodiazol-2-yl)amino]-N-[2-(dimethyl-1,2-oxazol-4-yl)ethyl]-3-[3-(trifluoromethyl)phenyl]propanamide]
< 10	O=C(CC(Nc1nc2ccccc2[nH]1)c1cccc(C(F)(F)F)c1)NCc1nccs1 (centres unmarked) [Example 75, 3-[(1H-1,3-benzodiazol-2-yl)amino]-N-(1,3-thiazol-2-ylmethyl)-3-[3-(trifluoromethyl)phenyl]propanamide]
